Measurements: patent publication US6531446B1, “Peptides having biological activity” (Korea Advanced Institute of Science and Technology, priority 1998, dated 2003)
Like-named read-outs stand apart in the source and are kept apart here. No end group written: not given here.

Tests used:
Assay type in all cases: cell-based
Bacillus subtilis = system: Bacillus subtilis
Protocol: (§1) By using the peptides as in Example 1, the minimal inhibitory concentration of the peptides were determined against a variety of microorganisms. Bacteria and fungi were incubated overnight in Mller-Hinton and Saboraud media, respectively, at 37 and 30° C., respectively, and were inoculated in media for 2 hours to a midlogarithmic phase. After diluting the bacteria and fungi to 10^4-10^5 per 1 ml, they were inoculated into a 96-well plate containing serially diluted peptides and incubated for additional 18 hours. The minimal inhibitory concentration was determined at a concentration that inhibits the growth of the microorganisms by measuring the absorbance.

Candida albicans = system: Candida albicans
Protocol: as §1

Cryptococcus neoformans = system: Cryptococcus neoformans
Protocol: as §1

Escherichia coli = system: Escherichia coli
Protocol: as §1

Saccharomyces cerevisiae = system: Saccharomyces cerevisiae
Protocol: as §1

Salmonella typhimurium = system: Salmonella typhimurium
Protocol: as §1

Serratia sp. = system: Serratia sp.
Protocol: as §1

Staphylococcus aureus = system: Staphylococcus aureus
Protocol: as §1

Streptococcus mutans = system: Streptococcus mutans
Protocol: as §1

Streptococcus pneumoniae = system: Streptococcus pneumoniae
Protocol: as §1

Psudomonas putida = experiment: Minimal inhibitory concentration, 96-well broth dilution; settings: Gram-negative; second part of Table 2
Protocol: as §1

[1] = system: a variety of microorganisms; experiment: Estimation of antimicrobial activity, overall statement in words; settings: result in words
Protocol: as §1

[2] = Gram-positive, second part of Table 2
[3] = Gram-negative, second part of Table 2

| Substance | Minimal Inhibitory Concentrations (Bacillus subtilis; [2]) [μg/m] | Minimal Inhibitory Concentrations (Candida albicans; Fungi, second part of Table 2) [μg/m] | Minimal Inhibitory Concentrations (Cryptococcus neoformans; Fungi, second part of Table 2) [μg/m] | Minimal Inhibitory Concentrations (Escherichia coli; [3]) [μg/m] | Minimal Inhibitory Concentrations (Saccharomyces cerevisiae; Fungi, second part of Table 2) [μg/m] | Minimal Inhibitory Concentrations (Salmonella typhimurium; [3]) [μg/m] | Minimal Inhibitory Concentrations (Serratia sp.; [3]) [μg/m] | Minimal Inhibitory Concentrations (Staphylococcus aureus; [2]) [μg/m] | Minimal Inhibitory Concentrations (Streptococcus mutans; [2]) [μg/m] | Minimal Inhibitory Concentrations (Streptococcus pneumoniae; [2]) [μg/m] | Minimal Inhibitory Concentrations (Psudomonas putida) [μg/m] | antimicrobial activity [1] | other results |
| --- | --- | --- | --- | --- | --- | --- | --- | --- | --- | --- | --- | --- | --- |
| Arg Ala Gly Leu Gln Phe Pro Val Gly Arg Val His Arg Leu Leu Arg Lys-NH2 (RAGLQFPVGRVHRLLRK-NH2) [Seq No. 16] | 1 | 2 | 1 | 2 | 2 | 2 | 1 | 1 | 0.5 | 1 | 2 | – | – |
| RKGLQKLVGRVHRLLRK [Seq No. 12] | 18 | 16 | 8 | 18 | 4 | 18 | 4 | 18 | 36 | 18 | 36 | – | – |
| RVHRLLRRVHRLLRRVHRLLR [Seq No. 14] | 6 | >200 | 100 | 100 | >200 | 50 | 3 | 50 | 25 | 100 | 50 | – | – |
| RAGLQFPVGRLLRRLLR [Buf(5-13)[RLLR]2] | 4 | 4 | 4 | 8 | 8 | 4 | 8 | 8 | 16 | 8 | 16 | – | – |
| RLLRRLLRRLLR [(RLLR)3] | 16 | 32 | 32 | 32 | 32 | 16 | 16 | 16 | 16 | 16 | 16 | – | – |
| RAGLQFPVGRLLRRLLRRLLR [Seq No. 15] | 1 | 2 | 1 | 1 | 4 | 1 | 1 | 1 | 0.5 | 1 | 1 | especially potent antimicrobial activity | – |
| RLLRRLLRRLLRRLLRRLLR [Seq No. 13] | 2 | 8 | 8 | 2 | 8 | 2 | 1 | 1 | 2 | 2 | 2 | strong antimicrobial activities | – |
| PVGRVHRLLRK [Seq No. 7] | – | – | – | – | – | – | – | – | – | – | – | strong antimicrobial activity | Minimal Inhibitory Concentrations (Bacillus subtilis; 18 h): 25 µg/mL; Minimal Inhibitory Concentrations (Candida albicans; 18 h): 50 µg/mL; Minimal Inhibitory Concentrations (Cryptococcus neoformans; 18 h): 50 µg/mL; Minimal Inhibitory Concentrations (Escherichia coli; 18 h): 25 µg/mL; Minimal Inhibitory Concentrations (Saccharomyces cerevisiae; 18 h): 50 µg/mL; Minimal Inhibitory Concentrations (Salmonella typhimurium; murium, 18 h): 50 µg/mL; Minimal Inhibitory Concentrations (Serratia sp.; 18 h): 25 µg/mL; Minimal Inhibitory Concentrations (Staphylococcus aureus; 18 h): 50 µg/mL; Minimal Inhibitory Concentrations (Streptococcus mutans; 18 h): 25 µg/mL; Minimal Inhibitory Concentrations (Streptococcus pneumoniae; 18 h): 50 µg/mL |
| RLLRRLLRRLLRRLLR [(RLLR)4] | 2 | 8 | 8 | 2 | 8 | 2 | 1 | 1 | 2 | 2 | 2 | strong antimicrobial activities | – |
| RAGLQFPVGRLLR [Buf(5-13)[RLLR]] | 32 | 32 | 32 | 32 | 32 | 16 | 32 | 64 | 16 | 32 | 32 | – | – |
